The record followed here is ChEMBL document CHEMBL1201862, “PubChem BioAssay data set” (2004).

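Cultured in 96-well plates, cells were exposed to test compound for 48 hours across five concentrations. GI50 is the concentration that inhibits growth by half.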 Activity calls are given as the source filed them. Rule as the data show it: active = GI50 up to about 1.1 µM and inactive = higher.

Test systems include KM12; OVCAR-5; SK-MEL-2; OVCAR-8; OVCAR-3; NCI-H226; HOP-62; TK-10; UO-31; EKVX; SN12C; SNB-75; U-251; CCRF-CEM; CAKI-1.
Assay in all cases: NCI tumour cell line growth inhibition, 48 h

As to `CNc1cc([N+](=O)[O-])ccc1C(=O)N1CCC[C@H]1CO`, the GI50 in the experiment on KM12, in the experiment on OVCAR-5, in the experiment on SK-MEL-2, in the experiment with OVCAR-8, in the experiment on OVCAR-3 and in the experiment on NCI-H226 was > 100 µM (inactive) throughout. The GI50 in the experiment with HOP-62, with TK-10, with UO-31, with EKVX, in the experiment on SN12C and with SNB-75 was > 100 µM (inactive) each time. In addition, the GI50 with U-251 was > 100 µM (inactive).

`COc1ccccc1N/C(SCc1ccccc1)=C(/C(Cl)=C(Cl)Cl)[N+](=O)[O-]`: the GI50 in the experiment with KM12 is 34 µM (inactive); in the experiment on OVCAR-5 it was 33.3 µM (inactive); with SK-MEL-2 it was 29.6 µM (inactive); with OVCAR-8 it was 14.4 µM (inactive); in the experiment on CCRF-CEM, 23.6 µM (inactive); with OVCAR-3, 18.7 µM (inactive). The GI50 in the experiment on CAKI-1 is 28.8 µM (inactive); in the experiment on NCI-H226, 35.5 µM (inactive); in the experiment on HOP-62 it was 28.6 µM (inactive); in the experiment on UO-31, 16.4 µM (inactive); with EKVX, 32 µM (inactive); in the experiment with SN12C, 20.3 µM (inactive). Moreover, the GI50 was 31.8 µM (inactive) in the experiment on SNB-75 and 21.1 µM (inactive) in the experiment with U-251.

Regarding `C(/C=N/N=C1NCCCCN1)=N\N=C1NCCCCN1`, the GI50 in the experiment with KM12, in the experiment with OVCAR-5, in the experiment on OVCAR-8, in the experiment with CCRF-CEM, with OVCAR-3 and in the experiment on CAKI-1 was > 100 µM (inactive) throughout. Besides, the GI50 in the experiment with NCI-H226, in the experiment with HOP-62, in the experiment on TK-10, in the experiment on UO-31, in the experiment with EKVX and in the experiment with SN12C was > 100 µM (inactive) in each case. Also, the GI50 in the experiment with SNB-75 and with U-251 was > 100 µM (inactive) each time.

For the compound `COc1ccc(CNc2nc(NCc3ccc(OC)cc3)nc(NC3CCCCC3)n2)cc1`, the GI50 in the experiment on KM12 is 1.5 µM (inactive); in the experiment with OVCAR-5, 4.99 µM (inactive); in the experiment with SK-MEL-2 it was 2.81 µM (inactive); in the experiment on OVCAR-8 it was 2.6 µM (inactive); with CCRF-CEM, 2.21 µM (inactive); with OVCAR-3, 2.2 µM (inactive). Besides, the GI50 is 1.07 µM (active) in the experiment with CAKI-1; 1.93 µM (inactive) with NCI-H226; 5.5 µM (inactive) in the experiment on HOP-62; 0.975 µM (active) in the experiment with TK-10; 4.32 µM (inactive) with UO-31; 2.57 µM (inactive) with EKVX. Further, the GI50 in the experiment with SN12C is 3.07 µM (inactive); with U-251, 3.03 µM (inactive).

In the case of `CC(C)(C)C(=O)O[C@H]1C=C[C@@H](O)[C@@H]2[C@H]1[C@@H]1C=C[C@H]2C1`, the GI50 with KM12 is 2.63 µM (inactive); in the experiment with OVCAR-5, 1.96 µM (inactive); in the experiment with SK-MEL-2, 13 µM (inactive); in the experiment on OVCAR-8 it was 19 µM (inactive); with CCRF-CEM it was 9.35 µM (inactive); in the experiment with OVCAR-3 it was 19.7 µM (inactive). Further, the GI50 is 71 µM (inactive) with CAKI-1; 26.4 µM (inactive) in the experiment with TK-10; 47.9 µM (inactive) in the experiment with UO-31; 6.01 µM (inactive) in the experiment on EKVX; 16.6 µM (inactive) in the experiment on SN12C; 29.9 µM (inactive) in the experiment on SNB-75. For the same compound, the GI50 with U-251 is 28.8 µM (inactive).
